In ChEMBL document CHEMBL1649565, “Besifloxacin, a novel fluoroquinolone, has broad-spectrum in vitro activity against aerobic and anaerobic bacteria” (Antimicrob Agents Chemother, 2009):

What was measured:
Format in all cases: functional
[1] = system: Staphylococcus aureus; test: Antibacterial activity against ciprofloxacin-susceptible and methicillin-resistant Staphylococcus aureus by CLSI M100-S18 method
[2] = system: Staphylococcus epidermidis; test: Antibacterial activity against non-ciprofloxacin-susceptible and methicillin-susceptible Staphylococcus epidermidis by CLSI M100-S18 method
[3] = system: Staphylococcus saprophyticus; test: Antibacterial activity against Staphylococcus saprophyticus by CLSI M100-S18 method
[4] = system: Streptococcus agalactiae; test: Antibacterial activity against Streptococcus agalactiae by CLSI M100-S18 method
[5] = Antibacterial activity against Lancefield Streptococcus sp. 'group C' by CLSI M100-S18 method
[6] = system: Streptococcus sp.; test: Antibacterial activity against Lancefield Streptococcus sp. group F by CLSI M100-S18 method
[7] = system: Streptococcus pneumoniae; test: Antibacterial activity against non-levofloxacin susceptible Streptococcus pneumoniae by CLSI M100-S18 method
[8] = system: Streptococcus oralis; test: Antibacterial activity against Streptococcus oralis by CLSI M100-S18 method
[9] = system: Streptococcus salivarius; test: Antibacterial activity against Streptococcus salivarius by CLSI M100-S18 method
[10] = system: Moraxella catarrhalis; test: Antibacterial activity against Moraxella catarrhalis by CLSI M7-A7 method
[11] = system: Morganella morganii; test: Antibacterial activity against Morganella morganii by CLSI M7-A7 method
[12] = system: Neisseria meningitidis; test: Antibacterial activity against Neisseria meningitidis by CLSI M7-A7 method
[13] = system: Proteus mirabilis; test: Antibacterial activity against Proteus mirabilis by CLSI M7-A7 method
[14] = system: Proteus vulgaris; test: Antibacterial activity against Proteus vulgaris by CLSI M7-A7 method
[15] = system: Enterococcus faecalis; test: Antibacterial activity against vancomycin- resistant Enterococcus faecalis assessed as percent susceptible isolates by CLSI M100-S18 method
[16] = system: Staphylococcus aureus; test: Antibacterial activity against ciprofloxacin-susceptible and methicillin-resistant Staphylococcus aureus assessed as percent susceptible isolates by CLSI M100-S18 method
[17] = system: Staphylococcus epidermidis; test: Antibacterial activity against ciprofloxacin-susceptible and methicillin-resistant Staphylococcus epidermidis assessed as percent susceptible isolates by CLSI M100-S18 method
[18] = system: Staphylococcus epidermidis; test: Antibacterial activity against non-ciprofloxacin-susceptible and methicillin-susceptible Staphylococcus epidermidis assessed as percent susceptible isolates by CLSI M100-S18 method
[19] = system: Staphylococcus warneri; test: Antibacterial activity against Staphylococcus warneri assessed as percent susceptible isolates by CLSI M100-S18 method
[20] = system: Streptococcus pneumoniae; test: Antibacterial activity against levofloxacin susceptible Streptococcus pneumoniae assessed as percent susceptible isolates by CLSI M100-S18 method
[21] = system: Streptococcus pneumoniae; test: Antibacterial activity against non-levofloxacin susceptible Streptococcus pneumoniae assessed as percent susceptible isolates by CLSI M100-S18 method
[22] = system: Acinetobacter baumannii; test: Antibacterial activity against Acinetobacter baumannii assessed as percent susceptible isolates by CLSI M7-A7 method
[23] = system: Acinetobacter calcoaceticus; test: Antibacterial activity against Acinetobacter calcoaceticus assessed as percent susceptible isolates by CLSI M7-A7 method
[24] = system: Acinetobacter lwoffii; test: Antibacterial activity against Acinetobacter lwoffii assessed as percent susceptible isolates by CLSI M7-A7 method
[25] = system: Haemophilus influenzae; test: Antibacterial activity against ciprofloxacin-susceptible Haemophilus influenzae assessed as percent susceptible isolates by CLSI M7-A7 method
[26] = system: Klebsiella pneumoniae; test: Antibacterial activity against Klebsiella pneumoniae assessed as percent susceptible isolates by CLSI M7-A7 method
[27] = system: Moraxella catarrhalis; test: Antibacterial activity against Moraxella catarrhalis assessed as percent susceptible isolates by CLSI M7-A7 method
[28] = system: Proteus mirabilis; test: Antibacterial activity against Proteus mirabilis assessed as percent susceptible isolates by CLSI M7-A7 method
[29] = system: Pseudomonas aeruginosa; test: Antibacterial activity against ciprofloxacin-susceptible Pseudomonas aeruginosa assessed as percent susceptible isolates by CLSI M7-A7 method
[30] = system: Pseudomonas aeruginosa; test: Antibacterial activity against non-ciprofloxacin-susceptible Pseudomonas aeruginosa assessed as percent susceptible isolates by CLSI M7-A7 method
[31] = system: Serratia marcescens; test: Antibacterial activity against levofloxacin susceptible Serratia marcescens assessed as percent susceptible isolates by CLSI M7-A7 method
[32] = system: Stenotrophomonas maltophilia; test: Antibacterial activity against non-levofloxacin susceptible Stenotrophomonas maltophilia assessed as percent susceptible isolates by CLSI M7-A7 method
[33] = system: Stenotrophomonas maltophilia; test: Antibacterial activity against levofloxacin-susceptible Stenotrophomonas maltophilia assessed as assessed as percent susceptible isolates by CLSI M7-A7 method

Question: With `C[C@H]1COc2c(N3CCN(C)CC3)c(F)cc3c(=O)c(C(=O)O)cn1c23.C[C@H]1COc2c(N3CCN(C)CC3)c(F)cc3c(=O)c(C(=O)O)cn1c23.O` [LEVOFLOXACIN] as the compound, how does the MIC50 [1] read?
Answer: The MIC50 was 0.12 µg/mL.

Question: What about the MIC90 [1] of the same compound?
Answer: The MIC90 was 0.25 µg/mL.

Question: And the MIC50 [2]?
Answer: The MIC50 was 8 µg/mL.

Question: What about the MIC50 [3] of the same compound?
Answer: Its MIC50 is 0.25 µg/mL.

Question: And the MIC90 [3]?
Answer: Its MIC90 is 0.5 µg/mL.

Question: What about the MIC [4] of the same compound?
Answer: The MIC was 0.5 µg/mL.

Question: What about the MIC50 [4] of the same compound?
Answer: Its MIC50 is 0.5 µg/mL.

Question: What about the MIC90 [4] of the same compound?
Answer: The MIC90 was 0.5 µg/mL.

Question: What about the MIC50 [5] of the same compound?
Answer: Its MIC50 is 0.5 µg/mL.

Question: What about the MIC90 [5] of the same compound?
Answer: Its MIC90 is 0.5 µg/mL.

Question: And the MIC50 [6]?
Answer: The MIC50 was 0.5 µg/mL.

Question: And the MIC90 [6]?
Answer: The MIC90 was 0.5 µg/mL.

Question: What about the MIC50 [7] of the same compound?
Answer: Its MIC50 is 16 µg/mL.

Question: And the MIC90 [7]?
Answer: The MIC90 was 16 µg/mL.

Question: And the MIC50 [8]?
Answer: The MIC50 was 1 µg/mL.

Question: And the MIC90 [8]?
Answer: Its MIC90 is 4 µg/mL.

Question: And the MIC50 [9]?
Answer: The MIC50 was 1 µg/mL.

Question: And the MIC90 [9]?
Answer: The MIC90 was 4 µg/mL.

Question: And the MIC50 [10]?
Answer: Its MIC50 is 0.015 µg/mL.

Question: And the MIC90 [10]?
Answer: Its MIC90 is 0.015 µg/mL.

Question: And the MIC50 [11]?
Answer: Its MIC50 is 0.06 µg/mL.

Question: What about the MIC90 [11] of the same compound?
Answer: Its MIC90 is 8 µg/mL.

Question: What about the MIC50 [12] of the same compound?
Answer: The MIC50 was 0.008 µg/mL.

Question: What about the MIC90 [12] of the same compound?
Answer: The MIC90 was 0.015 µg/mL.

Question: What about the MIC50 [13] of the same compound?
Answer: The MIC50 was 0.03 µg/mL.

Question: What about the MIC90 [13] of the same compound?
Answer: The MIC90 was 8 µg/mL.

Question: What about the MIC50 [14] of the same compound?
Answer: The MIC50 was 0.03 µg/mL.

Question: What about the MIC90 [14] of the same compound?
Answer: The MIC90 was 0.06 µg/mL.

Question: What about the Activity [15] of the same compound?
Answer: The Activity was 58.5%.

Question: What about the Activity [16] of the same compound?
Answer: The Activity was 100%.

Question: And the Activity [17]?
Answer: The Activity was 100%.

Question: And the Activity [18]?
Answer: The Activity was 0%.

Question: What about the Activity [19] of the same compound?
Answer: Its Activity is 74%.

Question: And the Activity [20]?
Answer: The Activity was 100%.

Question: And the Activity [21]?
Answer: Its Activity is 0%.

Question: And the Activity [22]?
Answer: The Activity was 37.7%.

Question: What about the Activity [23] of the same compound?
Answer: The Activity was 66.7%.

Question: And the Activity [24]?
Answer: Its Activity is 86%.

Question: What about the Activity [25] of the same compound?
Answer: Its Activity is 100%.

Question: And the Activity [26]?
Answer: The Activity was 91%.

Question: What about the Activity [27] of the same compound?
Answer: The Activity was 100%.

Question: And the Activity [28]?
Answer: Its Activity is 76%.

Question: What about the Activity [29] of the same compound?
Answer: The Activity was 96.2%.

Question: And the Activity [30]?
Answer: Its Activity is 1%.

Question: And the Activity [31]?
Answer: Its Activity is 100%.

Question: What about the Activity [32] of the same compound?
Answer: Its Activity is 100%.

Question: What about the Activity [33] of the same compound?
Answer: The Activity was 0%.
